The values below come from the OligoGym collection.

HELM strings list units from the 5' end as sugar, base in round brackets, then linkage (d deoxyribose, r ribose, m 2'-O-methyl, p phosphodiester). Strings are as the collection lists them; they lack the last nucleoside at the 3' end of the tested compound. [moe] = 2'-O-(2-methoxyethyl) (MOE); [sp] = phosphorothioate linkage; [m5C] = 5-methylcytosine

The series has as its target UBE3A-ATS. In words: mouse, dose not given. The settings on record: ASO.

In turn, “RNA1{[moe](T)[sp].[moe](G)p.[moe]([m5C])p.[moe](T)p.[moe](G)p.d(A)[sp].d(T)[sp].d([m5C])[sp].d(A)[sp].d([m5C])[sp].d(A)[sp].d(T)[sp].d(T)[sp].d(A)[sp].d([m5C])[sp].[moe]([m5C])p.[moe]([m5C])p.[moe](A)[sp].[moe](T)}$$$$ (last 3' nucleoside missing)” yielded a 3 h FOB score of 0 score 0-7.
Under “RNA1{[moe](T)[sp].[moe](G)p.[moe]([m5C])p.[moe](T)p.[moe](T)p.[moe]([m5C])p.d(A)[sp].d([m5C])[sp].d([m5C])[sp].d(A)[sp].d(T)[sp].d(T)[sp].d(T)[sp].d(T)[sp].d(G)[sp].d(A)[sp].[moe]([m5C])p.[moe]([m5C])[sp].[moe](T)}$$$$ (last 3' nucleoside missing)” stands 0 score 0-7; under “RNA1{[moe](T)[sp].[moe](G)p.[moe]([m5C])p.[moe](T)p.[moe](T)p.d([m5C])[sp].d(A)[sp].d([m5C])[sp].d([m5C])[sp].d(A)[sp].d(T)[sp].d(T)[sp].d(T)[sp].d(T)[sp].d(G)[sp].[moe](A)p.[moe]([m5C])p.[moe]([m5C])[sp].[moe](T)}$$$$ (last 3' nucleoside missing)”, 1 score 0-7; under “RNA1{[moe](T)[sp].[moe](G)p.[moe]([m5C])p.[moe](T)p.[moe]([m5C])[sp].d(A)[sp].d(G)[sp].d(T)[sp].d(T)[sp].d(A)[sp].d(G)[sp].d(G)[sp].d(T)[sp].[moe](T)p.[moe](A)p.[moe](G)[sp].[moe](T)}$$$$ (last 3' nucleoside missing)”, 6.3 score 0-7.
Then “RNA1{[moe](T)[sp].[moe](G)p.[moe]([m5C])p.[moe](T)p.[moe]([m5C])p.[moe](A)[sp].d(G)[sp].d(T)[sp].d(T)[sp].d(A)[sp].d(G)[sp].d(G)[sp].d(T)[sp].d(T)[sp].[moe](A)p.[moe](G)[sp].[moe](T)}$$$$ (last 3' nucleoside missing)”, with 5.7 score 0-7; and “RNA1{[moe](T)[sp].[moe](G)p.[moe]([m5C])p.[moe](T)p.[moe]([m5C])p.[moe](A)p.d(G)[sp].d(T)[sp].d(T)[sp].d(A)[sp].d(G)[sp].d(G)[sp].d(T)[sp].d(T)[sp].d(A)[sp].d(G)[sp].[moe](T)p.[moe](G)[sp].[moe]([m5C])}$$$$ (last 3' nucleoside missing)”, with 4 score 0-7.
Then “RNA1{[moe](T)[sp].[moe](G)p.[moe]([m5C])p.[moe](T)p.[moe]([m5C])p.d(A)[sp].d(G)[sp].d(T)[sp].d(T)[sp].d(A)[sp].d(G)[sp].d(G)[sp].d(T)[sp].d(T)[sp].d(A)[sp].[moe](G)p.[moe](T)p.[moe](G)[sp].[moe]([m5C])}$$$$ (last 3' nucleoside missing)”, with 4.3 score 0-7; and “RNA1{[moe](T)[sp].[moe](G)p.[moe]([m5C])p.[moe](T)p.d(G)[sp].d(A)[sp].d(T)[sp].d([m5C])[sp].d(A)[sp].d([m5C])[sp].d(A)[sp].d(T)[sp].d(T)[sp].d(A)[sp].[moe]([m5C])p.[moe]([m5C])p.[moe]([m5C])p.[moe](A)[sp].[moe](T)}$$$$ (last 3' nucleoside missing)”, with 0 score 0-7; and “RNA1{[moe](T)[sp].[moe](G)p.[moe]([m5C])p.[moe](T)p.d(T)[sp].d([m5C])[sp].d(A)[sp].d([m5C])[sp].d([m5C])[sp].d(A)[sp].d(T)[sp].d(T)[sp].d(T)[sp].d(T)[sp].[moe](G)p.[moe](A)p.[moe]([m5C])p.[moe]([m5C])[sp].[moe](T)}$$$$ (last 3' nucleoside missing)”, with 0 score 0-7.
The substance “RNA1{[moe](T)[sp].[moe](G)p.[moe]([m5C])p.[moe](T)p.d([m5C])[sp].d(A)[sp].d(G)[sp].d(T)[sp].d(T)[sp].d(A)[sp].d(G)[sp].d(G)[sp].d(T)[sp].d(T)[sp].[moe](A)p.[moe](G)p.[moe](T)p.[moe](G)[sp].[moe]([m5C])}$$$$ (last 3' nucleoside missing)” yielded a 3 h FOB score of 4 score 0-7.
Under “RNA1{[moe](T)[sp].[moe](G)p.[moe]([m5C])p.[moe]([m5C])p.[moe](T)p.d(T)[sp].d(T)[sp].d([m5C])[sp].d(T)[sp].d(A)[sp].d(T)[sp].d(T)[sp].d(T)[sp].d([m5C])[sp].d(A)[sp].[moe](G)p.[moe](A)p.[moe]([m5C])[sp].[moe]([m5C])}$$$$ (last 3' nucleoside missing)” stands 2.7 score 0-7.
Then “RNA1{[moe](T)[sp].[moe](T)p.[moe](A)p.[moe](A)p.[moe]([m5C])p.d(T)[sp].d(G)[sp].d([m5C])[sp].d(T)[sp].d(T)[sp].d([m5C])[sp].d(A)[sp].d([m5C])[sp].d([m5C])[sp].d(A)[sp].[moe](T)p.[moe](T)p.[moe](T)[sp].[moe](T)}$$$$ (last 3' nucleoside missing)”, with 1 score 0-7; and “RNA1{[moe](T)[sp].[moe](T)p.[moe](A)p.[moe](G)p.[moe](G)p.[moe](T)p.d([m5C])[sp].d(A)[sp].d(A)[sp].d([m5C])[sp].d([m5C])[sp].d(A)[sp].d(A)[sp].d(T)[sp].d(T)[sp].d(T)[sp].[moe](G)p.[moe]([m5C])[sp].[moe](T)}$$$$ (last 3' nucleoside missing)”, with 0 score 0-7; and “RNA1{[moe](T)[sp].[moe](T)p.[moe](A)p.[moe](G)p.[moe](G)p.d(T)[sp].d(T)[sp].d(A)[sp].d(G)[sp].d(T)[sp].d(G)[sp].d([m5C])[sp].d(A)[sp].d([m5C])[sp].d(A)[sp].[moe](G)p.[moe](A)p.[moe](T)[sp].[moe](A)}$$$$ (last 3' nucleoside missing)”, with 6 score 0-7.
Then “RNA1{[moe](T)[sp].[moe](T)p.[moe](A)p.[moe](G)p.[moe](G)p.d(T)[sp].d([m5C])[sp].d(A)[sp].d(A)[sp].d([m5C])[sp].d([m5C])[sp].d(A)[sp].d(A)[sp].d(T)[sp].d(T)[sp].[moe](T)p.[moe](G)p.[moe]([m5C])[sp].[moe](T)}$$$$ (last 3' nucleoside missing)”, with 0 score 0-7; and “RNA1{[moe](T)[sp].[moe](T)p.[moe](A)p.[moe](G)p.[moe](G)p.d([m5C])[sp].d(A)[sp].d(A)[sp].d(T)[sp].d(G)[sp].d(G)[sp].d(A)[sp].d([m5C])[sp].d(T)[sp].d(T)[sp].[moe](A)p.[moe](G)p.[moe](T)[sp].[moe](A)}$$$$ (last 3' nucleoside missing)”, with 1 score 0-7; and “RNA1{[moe](T)[sp].[moe](T)p.[moe](A)p.[moe](G)p.[moe](T)p.d(A)[sp].d(T)[sp].d(G)[sp].d(T)[sp].d([m5C])[sp].d(G)[sp].d(A)[sp].d(G)[sp].d(A)[sp].d(A)[sp].[moe]([m5C])p.[moe](T)p.[moe]([m5C])[sp].[moe](A)}$$$$ (last 3' nucleoside missing)”, with 5.5 score 0-7.
“RNA1{[moe](T)[sp].[moe](T)p.[moe](A)p.[moe](G)p.[moe](T)p.d(G)[sp].d(T)[sp].d([m5C])[sp].d(A)[sp].d(T)[sp].d(A)[sp].d(T)[sp].d(G)[sp].d(T)[sp].d(A)[sp].[moe](G)p.[moe]([m5C])p.[moe](A)[sp].[moe](A)}$$$$ (last 3' nucleoside missing)” displayed a 3 h FOB score of 1 score 0-7.
Under “RNA1{[moe](T)[sp].[moe](T)p.[moe](A)p.[moe](G)p.[moe]([m5C])p.d([m5C])[sp].d(A)[sp].d(T)[sp].d([m5C])[sp].d(A)[sp].d(T)[sp].d(T)[sp].d(T)[sp].d(T)[sp].d(A)[sp].[moe](T)p.[moe](T)p.[moe]([m5C])[sp].[moe](T)}$$$$ (last 3' nucleoside missing)” stands 0 score 0-7; under “RNA1{[moe](T)[sp].[moe](T)p.[moe](A)p.[moe](G)p.d(G)[sp].d(T)[sp].d([m5C])[sp].d(A)[sp].d(A)[sp].d([m5C])[sp].d([m5C])[sp].d(A)[sp].d(A)[sp].d(T)[sp].[moe](T)p.[moe](T)p.[moe](G)p.[moe]([m5C])[sp].[moe](T)}$$$$ (last 3' nucleoside missing)”, 0 score 0-7.
Under “RNA1{[moe](T)[sp].[moe](T)p.[moe](A)p.[moe](T)p.[moe](A)p.d(G)[sp].d(G)[sp].d(G)[sp].d(T)[sp].d(G)[sp].d(G)[sp].d(T)[sp].d(T)[sp].d(G)[sp].d(G)[sp].[moe](T)p.[moe](T)p.[moe]([m5C])[sp].[moe](A)}$$$$ (last 3' nucleoside missing)” stands 7 score 0-7; under “RNA1{[moe](T)[sp].[moe](T)p.[moe](A)p.[moe](T)p.[moe](T)p.d(G)[sp].d(G)[sp].d(T)[sp].d([m5C])[sp].d(A)[sp].d(T)[sp].d([m5C])[sp].d(T)[sp].d([m5C])[sp].d(G)[sp].[moe](G)p.[moe](G)p.[moe](T)[sp].[moe](A)}$$$$ (last 3' nucleoside missing)”, 4 score 0-7.
Then “RNA1{[moe](T)[sp].[moe](T)p.[moe](A)p.[moe]([m5C])p.[moe](T)p.d([m5C])[sp].d([m5C])[sp].d(T)[sp].d([m5C])[sp].d(T)[sp].d(G)[sp].d(G)[sp].d(T)[sp].d(G)[sp].d(T)[sp].[moe](G)p.[moe]([m5C])p.[moe](T)[sp].[moe](G)}$$$$ (last 3' nucleoside missing)”, with 3.5 score 0-7; and “RNA1{[moe](T)[sp].[moe](T)p.[moe](G)p.[moe](A)p.[moe](T)p.d([m5C])[sp].d(T)[sp].d(A)[sp].d(T)[sp].d(T)[sp].d(A)[sp].d(T)[sp].d(G)[sp].d(A)[sp].d(G)[sp].[moe](G)p.[moe](G)p.[moe]([m5C])[sp].[moe](A)}$$$$ (last 3' nucleoside missing)”, with 4.7 score 0-7; and “RNA1{[moe](T)[sp].[moe](T)p.[moe](G)p.[moe](G)[sp].d(T)[sp].d([m5C])[sp].d(A)[sp].d(T)[sp].d([m5C])[sp].d(T)[sp].d([m5C])[sp].d(G)[sp].[moe](G)p.[moe](G)p.[moe](T)p.[moe](A)[sp].[moe](T)}$$$$ (last 3' nucleoside missing)”, with 2.3 score 0-7.
The substance “RNA1{[moe](T)[sp].[moe](T)p.[moe](G)p.[moe](G)p.[moe](T)[sp].d([m5C])[sp].d(A)[sp].d(T)[sp].d([m5C])[sp].d(T)[sp].d([m5C])[sp].d(G)[sp].d(G)[sp].[moe](G)p.[moe](T)p.[moe](A)[sp].[moe](T)}$$$$ (last 3' nucleoside missing)” yielded a 3 h FOB score of 5 score 0-7.
